Assay results as given in patent publication US20230135524A1, “ARYL HYDANTOIN HETEROCYCLES AND METHODS OF USE” (The United States of America,as represented by the …, priority 2020, published 2023).

Columns and labels:
AR = molecular target: T1, AR (Homo sapiens, UniProt P10275); test: AR transcriptional output, ARE-luciferase assay in HEK 293T cells; assay type: cell-based; conditions: for antagonist or inverse agonist activity on AR transcriptional activity (in words): 10 μM, HEK 293T, FIG. 6A; for activity at 10 µM: HEK-293T, read-out: AR antagonist activity (% RLU)
T1 construct: host or cells: HEK 293T
T1 sequence (P10275 1-920): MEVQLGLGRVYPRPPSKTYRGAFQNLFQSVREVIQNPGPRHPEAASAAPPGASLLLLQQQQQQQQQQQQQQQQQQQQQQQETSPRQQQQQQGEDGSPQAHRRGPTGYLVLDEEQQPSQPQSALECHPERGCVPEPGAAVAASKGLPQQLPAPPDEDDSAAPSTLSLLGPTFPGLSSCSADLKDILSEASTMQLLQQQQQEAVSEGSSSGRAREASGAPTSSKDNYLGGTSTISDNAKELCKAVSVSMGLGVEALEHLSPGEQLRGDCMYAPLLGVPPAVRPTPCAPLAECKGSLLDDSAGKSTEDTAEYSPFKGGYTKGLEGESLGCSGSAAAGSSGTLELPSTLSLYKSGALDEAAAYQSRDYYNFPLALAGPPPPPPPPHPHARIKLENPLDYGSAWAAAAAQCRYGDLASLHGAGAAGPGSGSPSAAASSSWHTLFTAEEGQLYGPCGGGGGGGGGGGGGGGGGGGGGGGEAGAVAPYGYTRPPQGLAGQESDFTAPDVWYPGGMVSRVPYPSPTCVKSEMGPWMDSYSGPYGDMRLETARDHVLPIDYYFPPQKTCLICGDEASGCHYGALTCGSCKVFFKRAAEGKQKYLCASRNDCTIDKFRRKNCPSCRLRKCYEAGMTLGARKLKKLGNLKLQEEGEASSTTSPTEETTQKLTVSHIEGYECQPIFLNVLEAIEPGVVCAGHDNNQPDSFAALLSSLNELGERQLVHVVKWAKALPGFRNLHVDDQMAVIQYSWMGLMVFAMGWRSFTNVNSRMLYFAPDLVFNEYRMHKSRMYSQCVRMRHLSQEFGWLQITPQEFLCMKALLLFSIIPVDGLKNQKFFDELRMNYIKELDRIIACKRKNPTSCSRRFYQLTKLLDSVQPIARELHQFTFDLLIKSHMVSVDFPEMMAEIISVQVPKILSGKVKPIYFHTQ
Procedure: 100% is set to the activity with 200 μM testosterone, and 0% is set to the basal level (no ligand).
Cells were maintained in steroid free media, and stimulated with 200 μM testosterone, followed immediately by administration of exemplary compounds (Table 1, below). RLU is relative luciferase units, relative to DMSO control with 200 μM testosterone alone. Data represent an average of 3 independent experiments performed in triplicate wells per compounds at 10 μM.
Cells were maintained in steroid-free media, and stimulated with 200 μM testosterone, followed immediately by administration of a test compound. […] Compounds were dosed at 10 μM in FIGS. 6A and 6B.
Cells were maintained in steroid-free media, and stimulated with 200 μM testosterone, followed immediately by administration of a test compound.

22Rv1 = test: IncuCyte % confluence cell growth inhibition, 22Rv1; assay type: cell-based; conditions: Homo sapiens, 22Rv1, read-out: IC50 values (μM), 22Rv1
Procedure: (§1) Images were then analyzed to discern the % confluence of cells in each well. IC50 values were calculated from dose response curves of the % cell growth inhibition relative to DMSO control at the same time point per each cell line.

LNCaP = test: IncuCyte % confluence cell growth inhibition, LNCaP; assay type: cell-based; conditions: Homo sapiens, read-out: IC50 values (μM), LNCaP
Procedure: as §1

LAPC4 = test: IncuCyte % confluence cell growth inhibition, LAPC4; assay type: cell-based; conditions: Homo sapiens, LAPC4, read-out: IC50 values (μM), LAPC4
Procedure: as §1

DU145 = test: IncuCyte % confluence cell growth inhibition, DU145; assay type: cell-based; conditions: Homo sapiens, DU-145, read-out: IC50 values (μM), DU145
Procedure: as §1

PC3 = test: IncuCyte % confluence cell growth inhibition, PC3; assay type: cell-based; conditions: Homo sapiens, PC-3, read-out: IC50 values (μM), PC3
Procedure: as §1

LNCaP ARin vivo = test: IncuCyte % confluence cell growth inhibition, LNCaP ARin vivo; assay type: cell-based; conditions: Homo sapiens, read-out: IC50 values (μM), LNCaP ARin vivo
Procedure: as §1

LNCAP AR = test: IncuCyte % confluence cell growth inhibition, LNCAP AR; assay type: cell-based; conditions: read-out: IC50 values (μM), LNCAP AR
Procedure: as §1

LNCaP ARF876L = test: IncuCyte % confluence cell growth inhibition, LNCaP ARF876L; assay type: cell-based; conditions: Homo sapiens, AR-positive, AR mutation F876L, % cell growth inhibition relative to DMSO
Procedure: as §1

[1] = system: LAPC4 prostate cancer cells; test: LAPC4 mouse xenograft tumor volume; assay type: in vivo, Mice; conditions: oral gavage, LAPC4 mouse xenografts, day 17, FIG. 22
Procedure: FIG. 22 is a graph of tumor volume on day 17 as a percent change from the baseline.
Treatment was given once for 5 days followed by 2 days of rest. Tumor size was monitored by caliper twice weekly. Change from baseline tumor volume was calculated and reported as a waterfall plot. The in vivo activity is shown in FIG. 14, as measured by the percent change from the baseline.

LAMP cells [2] = test: Growth reduction kinetics in LAMP cells; assay type: cell-based; conditions: 15 μM and 30 μM, FIG. 20
Text: (§2) This AR dominated cluster 1 is often driven by amplification of the distal AR enhancer (Takeda et al., Cell, 2018, 174(2), 422-432).

[3] = Pharmacokinetics in non-tumor bearing BALB/C mice, IV and PO; assay type: in vivo; conditions: for AUClast—D / Cmax—D: dose-normalised; for AUC(0-t) / Cmax / Tmax / half-life: mouse, plasma
Procedure: FIG. 14A-B are graphs of time (hours) versus plasma concentration (ng/mL) for intravenous (IV) (FIG. 14A) and oral (PO) (FIG. 14B) administration of 15a and 15n over 12 hours. Error bars represent the standard deviation in ng/mL from three independent mice per time point.
Clearance, Cmax, half life, dose/AUC, and bioavailability were calculated by statistical analysis using PHOENIX™ WINNONLIN™ v7.0 (Certara, Princeton, N.J.). The results are shown in FIGS. 14A and 14B and Table 4.

LuCaP 167 = LuCaP 167 prostate cancer PDX tumor growth; assay type: in vivo, NSG male mice; conditions: 10 mg/kg oral gavage, 5 days on 2 days off, LuCaP 167 PDX, FIG. 23
Procedure: LuCaP 167 is a well-characterized androgen sensitive prostate cancer (PCa) PDX model established at the University of Washington and has been validated using short tandem repeat (STR) analysis. All preclinical in vivo experiments were performed in accordance with NCI Animal Care and Use Committee approved protocol. Six-week-old NSGmale mice were housed in a sterile, pathogen-free facility and maintained in a temperature-controlled room under a 12-hour light/dark schedule with water and food ad libitum. All mice were operated under sedation with oxygen and isoflurane. Ibuprofen and/or buprenorphine was administered post-surgery. LuCaP 167 was implanted subcutaneously under the left flank of intact mice. When tumors reached an average volume of ˜500 mm^3, mice were randomized and placed in either control group or treatment groups (n=10/group). […] Tumor burden was assessed twice per week by caliper measurement of two diameters of the tumor (L×W=mm^2) and reported as tumor volume ((L×W^2)/2=mm^3). Body weights were assessed using a weighing scale and recorded in grams. At the end-of-treatment (EOT) timepoint, tumor tissues were excised, weighed, and snap frozen for further analysis.

LAMP cells [4] = test: RNA-seq / gene set enrichment and master TF expression in LAMP cells; assay type: cell-based
Procedure: FIG. 16A-B are a Gene Set Enrichment Analysis for AR gene pathways (FIG. 16A) and MYC gene pathways (FIG. 16B) in LAMP cells (LNCaP cells engineered with CRISPR to have amplification of the AR enhancer) treated with either 15n or dimethylsulfoxide (DMSO) for 48 hours, followed by RNA-seq.
FIG. 16A-B are Gene Set Enrichment Analyses for AR gene pathways (FIG. 16A) and MYC gene pathways ([…]) in LAMP cells (LNCaP cells engineered with CRISPR (clustered regularly interspaced short palindromic repeats) to have amplification of the AR enhancer) treated with either 15n or DMSO for 48 hours, followed by RNA-seq.
as §2

Row | Structure (SMILES) | antagonist or inverse agonist activity on AR transcriptional activity (in words) (AR) | activity at 10 µM (AR) | IC50 (22Rv1) | IC50 (LNCaP) | IC50 (LAPC4) | IC50 (DU145) | IC50 (PC3) | IC50 (LNCaP ARin vivo) | IC50 (LNCAP AR) | IC50 (LNCaP ARF876L) | other results
1 | CC1(C)C(=O)N(c2ccc(C#N)c(C(F)(F)F)c2)C(=O)N1Cc1ccc(-c2c[nH]nn2)cc1 [Compound 14a, 4-(3-(4-(1H-1,2,3-triazol-4-yl)benzyl)-4,4-dimethyl-2,5-dioxoimidazolidin-1-yl)-2-(trifluoromethyl)benzonitrile] | reduced the transcriptional activity of the AR well below the expression in the absence of any steroids or ligands | -64% | 46.5 µM | 44.8 µM | 70 µM | 84.1 µM | 68.5 µM | 65.4 µM | 32.5 µM | 35.9 µM | 
2 | CC1(C)C(=O)N(c2cnc(C#N)c(C(F)(F)F)c2)C(=S)N1Cc1ccc(-c2c[nH]nn2)cc1 [Compound 15n] |  |  |  |  |  |  |  |  |  |  | tumor burden (percent change from baseline tumor volume) [1]: retained its ability to reduce tumor burden; cell killing compared with enzalutamide (LAMP cells [2]): superior cell killing at lower doses than enzalutamide; AUClast—D ([3]; IV, 1 mg/kg): 6255.85 kg·ng·h/mL/mg; Cmax—D ([3]; IV, 1 mg/kg): 936.94 kg·ng/mL/mg; AUClast—D ([3]; PO, 20 mg/kg): 4866.48 kg·ng·h/mL/mg; Cmax—D ([3]; PO, 20 mg/kg): 549.09 kg·ng/mL/mg; AUC(0-t) ([3]; IV, 1 mg/kg): 6260 ng·h/mL; Cmax ([3]; IV, 1 mg/kg): 937 ng/mL; Tmax ([3]; IV, 1 mg/kg): 0.5 h; half-life ([3]; IV, 1 mg/kg): 9.13 h; AUC(0-t) ([3]; PO, 20 mg/kg): 97300 ng·h/mL; Cmax ([3]; PO, 20 mg/kg): 11000 ng/mL; Tmax ([3]; PO, 20 mg/kg): 1 h; half-life ([3]; PO, 20 mg/kg): 22.3 h; anti-tumor effect (average tumor growth rate) (LuCaP 167): superior anti-tumor effect over enzalutamide; ATF4 expression (LAMP cells [4]; 48 hours, FIG. 19): greatly reduced; AR target gene set (Gene Set Enrichment Analysis) (LAMP cells [4]; 48 hours, versus DMSO, RNA-seq): down regulated; MYC target gene set (Gene Set Enrichment Analysis) (LAMP cells [4]; 48 hours, versus DMSO, RNA-seq): down regulated; ATF4 driven amino-acid tRNA synthesis pathway (LAMP cells [4]; compared with enzalutamide): able to also downregulate
3 | CC1(C)C(=O)N(c2ccc(C#N)c(C(F)(F)F)c2)C(=S)N1c1ccc(-c2c[nH]nn2)cc1 [Compound 16a, 4-(3-(4-(1H-1,2,3-triazol-4-yl)phenyl)-4,4-dimethyl-5-oxo-2-thioxoimidazolidin-1-yl)-2-(trifluoromethyl)benzonitrile] | reduced the transcriptional activity of the AR well below the expression in the absence of any steroids or ligands | -22% | 20.7 µM | 17.1 µM | 17.3 µM | 39.9 µM | 49.2 µM | 33.6 µM | 21.2 µM | 30.2 µM | 
